For one experiment, the target named is Large T antigen (Simian virus 40, UniProt P03070). It counts as functional, Betapolyomavirus macacae.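 Note: Confirmatory-stage PubChem screen for compounds that inhibit SV40 T antigen.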
A short description of experiment [1]: THP-1 cell cytotoxicity, dose response, cytotoxicity control for Vif-APOBEC3G degradation inhibitor project, THP-1 cells (AID 1117359). It counts as functional. The settings on record: Human immunodeficiency virus 1, THP-1.
The target in another experiment is T1, Protein RecA (Mycobacterium tuberculosis, UniProt P9WHJ3).
T1 sequence (P9WHJ3 whole entry): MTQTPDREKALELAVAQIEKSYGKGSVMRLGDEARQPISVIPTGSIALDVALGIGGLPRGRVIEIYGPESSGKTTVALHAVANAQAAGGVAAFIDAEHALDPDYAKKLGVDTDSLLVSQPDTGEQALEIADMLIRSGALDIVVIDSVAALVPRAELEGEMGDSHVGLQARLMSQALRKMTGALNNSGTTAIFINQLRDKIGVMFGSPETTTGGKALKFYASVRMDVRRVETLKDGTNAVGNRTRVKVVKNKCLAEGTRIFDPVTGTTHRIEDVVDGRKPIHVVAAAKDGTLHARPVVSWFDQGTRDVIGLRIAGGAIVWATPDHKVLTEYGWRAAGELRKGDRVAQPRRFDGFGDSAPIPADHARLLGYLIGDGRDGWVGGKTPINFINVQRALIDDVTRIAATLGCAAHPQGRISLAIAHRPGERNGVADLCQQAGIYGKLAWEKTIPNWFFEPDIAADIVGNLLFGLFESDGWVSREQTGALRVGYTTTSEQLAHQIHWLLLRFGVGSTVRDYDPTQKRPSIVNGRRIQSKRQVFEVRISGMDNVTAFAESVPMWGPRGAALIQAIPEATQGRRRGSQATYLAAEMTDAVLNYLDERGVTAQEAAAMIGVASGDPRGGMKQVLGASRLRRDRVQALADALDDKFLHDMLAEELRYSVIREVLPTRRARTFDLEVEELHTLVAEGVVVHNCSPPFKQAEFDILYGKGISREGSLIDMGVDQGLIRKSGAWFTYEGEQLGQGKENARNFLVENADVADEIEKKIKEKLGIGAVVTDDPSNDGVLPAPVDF
Nature of the experiment: Fluorescence Cell-Free Homogeneous Dose Retest to Identify Inhibitors of RecA-Intein Splicing Activity. [Related pubchem assays (depositor defined):AID2097, AID2223, AID489010, AID492950]. In kind it is functional.

Experiment [2] concerns the target T2, Replicative DNA helicase DnaB (Mycobacterium tuberculosis, UniProt P9WMR3).
T2 sequence (P9WMR3 whole entry): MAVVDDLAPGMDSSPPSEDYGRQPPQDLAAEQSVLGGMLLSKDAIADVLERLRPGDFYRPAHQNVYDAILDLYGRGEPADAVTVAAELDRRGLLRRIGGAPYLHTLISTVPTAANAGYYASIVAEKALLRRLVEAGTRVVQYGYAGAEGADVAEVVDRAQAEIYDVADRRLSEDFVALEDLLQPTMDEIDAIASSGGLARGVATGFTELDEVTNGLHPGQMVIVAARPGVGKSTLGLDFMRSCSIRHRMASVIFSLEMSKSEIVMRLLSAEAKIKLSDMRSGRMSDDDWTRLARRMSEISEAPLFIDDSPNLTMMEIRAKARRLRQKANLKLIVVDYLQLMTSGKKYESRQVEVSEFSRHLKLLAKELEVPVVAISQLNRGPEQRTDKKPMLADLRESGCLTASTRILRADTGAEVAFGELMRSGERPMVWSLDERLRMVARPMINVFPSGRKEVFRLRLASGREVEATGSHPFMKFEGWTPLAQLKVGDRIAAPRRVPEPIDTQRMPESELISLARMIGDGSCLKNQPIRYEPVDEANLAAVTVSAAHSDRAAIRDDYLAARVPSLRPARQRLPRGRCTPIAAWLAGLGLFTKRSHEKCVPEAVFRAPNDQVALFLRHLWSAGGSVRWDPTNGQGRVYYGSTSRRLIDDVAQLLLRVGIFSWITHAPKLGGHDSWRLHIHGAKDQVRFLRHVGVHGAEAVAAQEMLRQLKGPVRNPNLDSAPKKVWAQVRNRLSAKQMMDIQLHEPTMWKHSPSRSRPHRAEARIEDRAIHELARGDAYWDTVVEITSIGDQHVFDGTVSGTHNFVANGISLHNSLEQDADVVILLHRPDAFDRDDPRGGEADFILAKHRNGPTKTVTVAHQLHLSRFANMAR
Description: DnaB intein splicing inhibitors, dose response, biochemical, cell-free fluorescence (AID 449749). In kind it is functional.

The nature of experiment [3]: human group III sPLA2 inhibitors, dose response, biochemical, QFRET, IC50 (AID 743457).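 Note: green fluorescence rise as the enzyme cleaves BODIPY PC-A2 in liposomes; potency for inhibition of the enzyme.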
The nature of experiment [4]: Artemis endonuclease inhibitor potency, dose response, biochemical, fluorescence intensity (AID 720701).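 Note: Artemis endonuclease enzyme.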 In kind it is functional.
The target in the next experiment is Paired box protein Pax-8 (Homo sapiens, UniProt Q06710). Nature of the experiment: inhibitors of PAX8-driven TPO luciferase reporter, dose response, RMG-I cells, cherry-pick (AID 687027).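 Note: luciferase reporter driven by Pax8 target thyroperoxidase promoter measured by SteadyGlo luminescence.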 It counts as functional, cell-based.
Paired box protein Pax-8, sequence (Q06710 whole entry): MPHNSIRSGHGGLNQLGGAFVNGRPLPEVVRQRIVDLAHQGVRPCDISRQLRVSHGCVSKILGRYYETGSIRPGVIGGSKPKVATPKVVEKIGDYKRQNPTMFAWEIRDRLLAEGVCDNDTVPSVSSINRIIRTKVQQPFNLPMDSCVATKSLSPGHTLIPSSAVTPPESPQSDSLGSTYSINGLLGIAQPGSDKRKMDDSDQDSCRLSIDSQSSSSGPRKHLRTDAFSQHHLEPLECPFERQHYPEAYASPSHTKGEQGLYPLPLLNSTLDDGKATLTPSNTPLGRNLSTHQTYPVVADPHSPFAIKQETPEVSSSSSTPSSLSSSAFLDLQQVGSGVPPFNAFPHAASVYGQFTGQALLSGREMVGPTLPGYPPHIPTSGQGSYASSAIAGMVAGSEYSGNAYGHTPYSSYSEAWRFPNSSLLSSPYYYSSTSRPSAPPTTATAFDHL
Experiment [5] in a line: IGROV1 ovarian cancer cell cytotoxicity, dose response, PAX8 inhibitor project, plate reader, dry powder samples (AID 743043). It counts as functional, cell-based. To be noted: IGROV-1.
A short description of experiment [6]: cytotoxicity in OVCAR8 ovarian cancer cells, dose response, PAX8 project, cell-based, plate reader, dry powder samples (AID 743197). It counts as functional. The settings on record: OVCAR-8.
The nature of experiment [7]: NIH:OVCAR-3 ovarian cancer cell cytotoxicity, dose response, PAX8 inhibitor project, plate reader, dry powder samples (AID 743044). It counts as functional, cell-based.
A short description of experiment [8]: HEK293T cytotoxicity, dose response, cytotoxicity control for miR-122 modulator project, cell-based, inhibitor set, cherry-pick, set 2 (AID 720697). In kind it is functional.
The nature of experiment [9]: P. falciparum Dd2 growth inhibitors, dose response, SYBR Green, dry powder samples (AID 1159566).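 Note: potency for growth inhibition with lower SYBR green DNA signal.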 It counts as functional, cell-based.
A short description of experiment [10]: P. falciparum Dd2 growth inhibitors, dose response, SYBR Green, cherry-picked samples (AID 1159567). It counts as functional, cell-based.
Experiment [11] is described as follows: P. falciparum ATP4 D1247Y mutant growth inhibitors, dose response, NITD609-resistant line, SYBR Green, dry powder (AID 1159571).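 Note: parasites synchronized at ring stage by sorbitol before testing.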 It counts as functional, cell-based.
A short description of experiment [12]: P. falciparum 3D7-ScDHODH growth inhibitors, dose response, SYBR Green, dry powder samples (AID 1159570).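 Note: parasite growth measured after 72 hours of compound exposure.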 In kind it is functional, cell-based.
The subject of experiment [13] is BJ. Description: cells. It counts as functional, cell-based. To be noted: Homo sapiens.
Experiment [14] concerns BJ. Description: cytotoxicity toward BJ-TERT fibroblasts, dose response, cell-based, RAS-independent, luminescence (AID 1933). The settings on record: Homo sapiens. It counts as functional.
The nature of experiment [15]: cytotoxicity toward DRD oncogenic fibroblasts, dose response, cell-based, non-viral oncogenic, luminescence (AID 1934). It counts as functional. The settings on record: Homo sapiens.
Experiment [16] relates to BJ. Nature of the experiment: cytotoxicity toward BJ-TERT-LT-ST fibroblasts, dose response, cell-based, RAS-independent, luminescence (AID 1935).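 Note: BJ fibroblasts immortalized with TERT plus LT and ST oncogenes.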 In kind it is functional. The settings on record: Homo sapiens.
In a further experiment the test system is Streptococcus. Description: Group A Streptococcus viability loss, dose response, counter-screen for streptokinase expression inhibitor project, luminescence, BacTiterGlo (AID 1915).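 Note: potency for reduction of bacterial viability or growth.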 In kind it is functional, organism-based. (The purpose of a counterscreen is to sort out artefacts and off-target activity.)
Experiment [17] concerns Streptococcus sp. 'group A'. Description: growth inhibition of control SK(-) GAS strain, dose response, counter-screen for streptokinase expression inhibitor project, luminescence, kanamycin, BacTiterGlo, confirmation (AID 1900). In kind it is functional, organism-based.
The nature of experiment [18]: cells. It counts as functional, cell-based.
Experiment [19] is described as follows: cells. It counts as functional, cell-based. The source holds these as a separate data set.
The target of experiment [20] is T3, Trace amine-associated receptor 1 (Homo sapiens, UniProt Q96RJ0).
T3 sequence (Q96RJ0 whole entry): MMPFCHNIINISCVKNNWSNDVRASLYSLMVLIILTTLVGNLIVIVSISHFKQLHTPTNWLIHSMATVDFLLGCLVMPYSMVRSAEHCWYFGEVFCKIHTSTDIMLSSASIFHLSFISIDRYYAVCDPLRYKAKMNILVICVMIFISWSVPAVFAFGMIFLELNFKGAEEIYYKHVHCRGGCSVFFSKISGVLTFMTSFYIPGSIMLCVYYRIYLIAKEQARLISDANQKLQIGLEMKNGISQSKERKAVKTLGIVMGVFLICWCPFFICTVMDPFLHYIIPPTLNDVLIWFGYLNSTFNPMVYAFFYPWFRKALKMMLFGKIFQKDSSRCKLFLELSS
Description: Counterscreen for agonists of the human trace amine associated receptor 1 (hTAAR1): Fluorescence-based cell-based high throughput dose response assay to identify hTAAR1 agonist that also desensitize TAAR1 receptor response. It counts as functional.

Experiment [21] concerns the target T3, Trace amine-associated receptor 1. Nature of the experiment: Fluorescence-based cell-based high throughput dose response assay to identify agonists of the human trace amine associated receptor 1 (TAAR1). In kind it is functional.

Active and inactive are the calls of the source. A value given as a limit tells only on which side of the number the result lay.

Large T antigen, sequence (P03070 whole entry): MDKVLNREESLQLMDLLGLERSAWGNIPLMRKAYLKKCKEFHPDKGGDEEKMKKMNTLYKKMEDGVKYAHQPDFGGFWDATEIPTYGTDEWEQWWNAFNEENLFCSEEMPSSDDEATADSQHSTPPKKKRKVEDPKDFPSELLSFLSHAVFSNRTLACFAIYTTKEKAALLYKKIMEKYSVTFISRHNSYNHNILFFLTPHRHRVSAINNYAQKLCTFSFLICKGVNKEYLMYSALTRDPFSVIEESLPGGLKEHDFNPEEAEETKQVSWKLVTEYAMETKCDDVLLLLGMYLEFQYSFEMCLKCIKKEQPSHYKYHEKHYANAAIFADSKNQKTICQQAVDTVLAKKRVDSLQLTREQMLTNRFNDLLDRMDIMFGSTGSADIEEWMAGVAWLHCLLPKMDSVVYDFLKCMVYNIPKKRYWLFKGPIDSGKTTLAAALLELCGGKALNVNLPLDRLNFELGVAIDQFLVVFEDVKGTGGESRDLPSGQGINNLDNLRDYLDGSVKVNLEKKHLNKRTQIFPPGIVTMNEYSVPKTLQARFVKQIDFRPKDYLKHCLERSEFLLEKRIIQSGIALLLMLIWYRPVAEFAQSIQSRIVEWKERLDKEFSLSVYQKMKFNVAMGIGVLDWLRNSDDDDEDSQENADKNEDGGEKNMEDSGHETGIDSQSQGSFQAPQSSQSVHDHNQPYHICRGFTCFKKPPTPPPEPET

Consider `COc1ccc(Nc2ccc(OC)cc2)cc1`, for which, on Large T antigen, the IC50 (as a rule, the concentration at which inhibition is half-maximal) is 26.2 µM (active). For the same molecule, the CC50 (in general, the concentration at which the toxic effect on the cells reaches its halfway point) in experiment [1] is 21 µM (active). The EC50 (in general, the concentration needed to bring the measured effect to its halfway point) on Protein RecA was > 380 µM (inactive). Further, the AC50 (in general, the concentration giving half of the maximal activity seen) in experiment [2] was 121 µM (active).

`O=C(Cc1cccs1)NNC(=S)NCc1ccc(Cl)cc1`: the IC50 in experiment [3] is > 122 µM (inactive).

In the case of `CC(=O)N(/N=C1\Sc2ccccc2C1=O)c1ccccc1`, the IC50 in experiment [4] was 6.46 µM (active).

As for `COc1cccc(-c2ccc3c(c2)[C@@H]2[C@@H](CCN2S(=O)(=O)c2ccccc2OC)[C@H](CO)N3C)c1`, the AC50 on Paired box protein Pax-8 is 10.3 µM (active); in [5], 50.6 µM (active); in experiment [6], 27.8 µM (active); in experiment [7], 18 µM (active).

Regarding `CN1C(=O)c2cc(NC(=O)c3cccs3)ccc2OC[C@H]2O[C@@H](CC(=O)NCCN3CCCCC3)CC[C@@H]21`, the AC50 in experiment [8] was 4.24 µM (active).

On to `C[C@H]1CN([C@@H](C)CO)S(=O)(=O)c2ccc(-c3ccc(C#N)cc3)cc2O[C@H]1CN(C)CC1CC1`, for which the AC50 in [9] was 1.76 µM (active); in [10], 2.27 µM (active); in experiment [11], 3.08 µM (active); in [12] it was 2.79 µM (active).

For the molecule `O=C(NNC(=S)Nc1ccccc1)c1ccc2ncccc2c1`, the IC50 in experiment [3] was > 122 µM (inactive).

As for `COc1cccc(-c2cn3nc4c(nc3n2)CCCC4)c1`, the EC50 in the experiment with BJ [13] was 21.6 µM (active); in the experiment with BJ [14], 16.2 µM (active); in experiment [15], 12.9 µM (active); in the experiment on BJ [16], > 150 µM (not active). Moreover, the IC50 in [4] is > 20 µM (inactive).

Turning to `Oc1ccc2ccccc2c1/C=N/c1nc2c(s1)CCCC2`, the IC50 in [4] was > 20 µM (inactive).

With `COc1cc(C(=O)NNC(=S)NC(=O)c2ccc3c(c2)OCO3)cc(OC)c1OC`, the EC50 with Streptococcus was 3.37 µM (active); in experiment [17], 1.36 µM (active). Also, the IC50 in [3] is > 122 µM (inactive).

With `CCOC(=O)C(NC(C)=O)(N1CCc2ccccc2C1)C(F)(F)F` (centres undefined), the EC50 in the experiment “cells [18]” was > 29.9 µM (inactive); in [21], 0.0868 µM (active). The IC50 in “cells [19]” was > 29.9 µM (inactive); in [20], 2.8 µM (active).

The values above are taken from ChEMBL document CHEMBL1201862, “PubChem BioAssay data set” (2004).
